Columns and labels:
[1] = target: ABCB1 (Homo sapiens, UniProt P08183); experiment: JC-1 efflux inhibition dose response, flow cytometry, Jurkat-DNR cells; details: IC50 ABCB1 (efflux inhibition of JC-1 substrate), Jurkat-DNR cells over-expressing ABCB1; averages of two to four replicates
Experimental: (§1) The HyperCyt® high throughput flow cytometry platform (IntelliCyt™, Albuquerque, N. Mex.) was used to sequentially sample cells from 384-well microplates (2 μL/sample) for flow cytometer presentation at a rate of 40 samples per minute.^62-63 Flow cytometric analysis was performed on a CyAn™ flow cytometer (Beckman-Coulter, Fullerton, Calif.). The resulting time-gated data files were analyzed with HyperView® software to determine compound activity in each well. Inhibition response curves were fitted by Prism® software (GraphPad Software, Inc., San Diego, Calif.) using nonlinear least-squares regression in a sigmoidal dose response model with variable slope, also known as the four-parameter logistic equation. This type of time-gated flow cytometric data analysis was described in detail for a previous ABC transporter screen from our group.^56
The assay provider's ABCB1 over-expressing Jurkat-DNR cell line is used for confirmatory follow up instead of the CCRF-Adr cells. Each cell line (Jurkat-DNR and Ig-MXP3) is run separately against all compounds (no differential cell staining) in dose response. The assay is conducted in 384-well format in a total volume of 15.1 μL. Cells and reagents are added sequentially as follows: 1) PBS buffer (5 μL/well); 2) test compound (100 nL/well); 3) drug-resistant cells (10 μL/well) pre-stained with the JC-1 substrate at 1 μM. Final in-well concentrations of test compound range from 50 μM to 69 nM over an 18 point dose response and the cell concentration is 1×10^6 cells/mL. Nicardipine (50 μM) is added to each plate as a pan-inhibition positive control. The plate is rotated end-over-end at 4 RPM and 25° C. for 30 minutes and then cell samples are analyzed and flow cytometric data of light scatter and fluorescence emission at 530+/−20 nm (488 nm excitation, FL1) are collected.
(§2) Each cell line (Jurkat-DNR and Ig-MXP3) was run separately against all compounds (no differential cell staining) in dose-response. The protocol differed from the single point screen as describe here. Cells and reagents were added sequentially as follows: 1) PBS buffer (5 μL per well); 2) test compound (100 nL per well); 3) drug-resistant cells (10 μL, per well) pre-exposed to the JC-1 substrate at 1 μM just prior to the well addition. Final in-well concentrations of test compound ranged from 50 μM to 69 nM over an 18 point dose-response and the cell concentration was 1×10^6 cells mL^−1.

[2] = target: T1, ABCG2 (Homo sapiens, UniProt Q9UNQ0); experiment: JC-1 efflux inhibition dose response, flow cytometry, Ig-MXP3 cells
T1 sequence (Q9UNQ0 1-655): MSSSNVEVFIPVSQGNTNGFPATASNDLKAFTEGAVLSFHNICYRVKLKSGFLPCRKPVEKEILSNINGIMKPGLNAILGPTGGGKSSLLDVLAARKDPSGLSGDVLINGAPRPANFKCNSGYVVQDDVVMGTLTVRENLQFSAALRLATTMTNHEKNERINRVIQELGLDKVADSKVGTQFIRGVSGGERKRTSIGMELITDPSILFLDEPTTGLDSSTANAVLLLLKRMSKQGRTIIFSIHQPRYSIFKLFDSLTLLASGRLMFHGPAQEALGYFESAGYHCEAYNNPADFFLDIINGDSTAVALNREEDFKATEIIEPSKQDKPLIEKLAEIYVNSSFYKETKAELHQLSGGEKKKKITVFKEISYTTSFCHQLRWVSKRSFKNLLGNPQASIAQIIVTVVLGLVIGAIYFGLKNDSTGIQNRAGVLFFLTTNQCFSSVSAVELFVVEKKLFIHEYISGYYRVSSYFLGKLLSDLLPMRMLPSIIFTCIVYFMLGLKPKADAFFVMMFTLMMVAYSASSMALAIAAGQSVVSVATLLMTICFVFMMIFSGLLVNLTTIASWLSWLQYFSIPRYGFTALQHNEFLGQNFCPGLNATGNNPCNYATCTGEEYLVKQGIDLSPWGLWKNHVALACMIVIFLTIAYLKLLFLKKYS
Experimental: as §1
(§3) The assay provider's ABCB1 over-expressing Jurkat-DNR cell line is used for confirmatory follow up instead of the CCRF-Adr cells. Each cell line (Jurkat-DNR and Ig-MXP3) is run separately against all compounds (no differential cell staining) in dose response. The assay is conducted in 384-well format in a total volume of 15.1 μL. Cells and reagents are added sequentially as follows: 1) PBS buffer (5 μL/well); 2) test compound (100 nL/well); 3) drug-resistant cells (10 μL/well) pre-stained with the JC-1 substrate at 1 μM. […] Nicardipine (50 μM) is added to each plate as a pan-inhibition positive control.
as §2, with “addition.” for “addition. Final in-well concentrations of test compound ranged from 50 μM to 69 nM over an 18 point dose-response and the cell concentration was 1×10^6 cells mL^−1.”

[3] = target: T2, ABCB1 / ABCG2 (Homo sapiens, UniProt Q9UNQ0); experiment: as above; details: human, probe JC-1 (1 µM), ~Fold G2 Selective (B1/G2), quotient of average ABCB1 IC50 and average ABCG2 IC50, efflux assay
T2 sequence (Q9UNQ0 1-655): T1 sequence (Q9UNQ0 1-655)
Experimental: as §1, §3
as §2, with “addition.” for “addition. Final in-well concentrations of test compound ranged from 50 μM to 69 nM over an 18 point dose-response and the cell concentration was 1×10^6 cells mL^−1.”

Chain of ABCB1 (P08183 whole entry): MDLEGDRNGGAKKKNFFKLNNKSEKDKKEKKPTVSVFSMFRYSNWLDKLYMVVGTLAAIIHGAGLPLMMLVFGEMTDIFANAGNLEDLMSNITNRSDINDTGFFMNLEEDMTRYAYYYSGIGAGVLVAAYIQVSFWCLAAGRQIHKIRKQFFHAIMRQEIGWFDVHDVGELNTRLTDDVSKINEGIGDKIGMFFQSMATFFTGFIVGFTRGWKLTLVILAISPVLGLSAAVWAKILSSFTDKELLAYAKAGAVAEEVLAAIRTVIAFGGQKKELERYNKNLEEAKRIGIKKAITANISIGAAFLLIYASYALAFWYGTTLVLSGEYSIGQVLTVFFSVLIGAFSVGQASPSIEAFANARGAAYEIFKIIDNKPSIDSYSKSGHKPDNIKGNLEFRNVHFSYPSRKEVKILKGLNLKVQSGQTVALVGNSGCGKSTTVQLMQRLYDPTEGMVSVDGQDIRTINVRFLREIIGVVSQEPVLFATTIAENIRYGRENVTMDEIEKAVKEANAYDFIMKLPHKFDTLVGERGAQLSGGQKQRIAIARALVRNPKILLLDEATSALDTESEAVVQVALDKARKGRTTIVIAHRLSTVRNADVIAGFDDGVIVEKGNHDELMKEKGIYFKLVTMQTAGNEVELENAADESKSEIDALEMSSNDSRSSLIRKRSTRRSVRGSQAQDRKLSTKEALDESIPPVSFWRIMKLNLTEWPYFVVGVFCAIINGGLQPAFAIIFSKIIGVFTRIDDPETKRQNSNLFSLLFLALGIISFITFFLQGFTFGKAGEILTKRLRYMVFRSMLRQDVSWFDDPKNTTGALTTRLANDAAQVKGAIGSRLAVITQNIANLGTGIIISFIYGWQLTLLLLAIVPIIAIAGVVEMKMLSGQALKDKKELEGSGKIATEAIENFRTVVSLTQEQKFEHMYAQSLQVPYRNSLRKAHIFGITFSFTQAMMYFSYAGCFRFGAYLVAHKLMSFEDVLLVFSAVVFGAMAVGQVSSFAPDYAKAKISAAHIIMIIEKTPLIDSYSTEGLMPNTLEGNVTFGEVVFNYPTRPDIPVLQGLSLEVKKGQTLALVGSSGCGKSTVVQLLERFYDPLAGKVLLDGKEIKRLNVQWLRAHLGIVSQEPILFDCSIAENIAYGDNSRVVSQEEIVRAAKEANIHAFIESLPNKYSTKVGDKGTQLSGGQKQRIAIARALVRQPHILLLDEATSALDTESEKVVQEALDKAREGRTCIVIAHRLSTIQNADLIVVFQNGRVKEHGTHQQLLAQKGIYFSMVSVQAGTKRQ

SMILES | IC50 [1] [µM] | IC50 [2] [µM] | selectivity ratio at 30 min [3]
O=C(c1ccoc1)N1CCN(c2cc(-c3ccco3)nc3cc(-c4cccc(-c5ccco5)c4)nn23)CC1 [Compound 60] | 3.98 ± 1.3 | 0.93 ± 0.27 | 4.3
O=C(c1ccccc1Cl)N1CCN(c2cc(-c3ccccc3)nc3cc(-c4cccc(Cl)c4)nn23)CC1 [Compound 17] | 1.85 ± 0.75 | 1.31 ± 0.23 | 1.4
O=C(c1ccoc1)N1CCN(c2cc(-c3ccccc3F)nc3cc(-c4ccccc4)nn23)CC1 [Compound 46] | 5.61 | 0.56 | 10
O=C(c1ccccc1)N1CCN(c2cc(-c3ccccc3)nc3cc(-c4ccc(F)cc4)nn23)CC1 [Compound 43] | 3.99 ± 2.31 | 2.03 ± 0.11 | 2
CNCCCN(C)c1cc(-c2ccco2)nc2cc(-c3ccccc3)nn12 [Compound 79] | 11.9 ± 8.94 | 25.5 ± 13.4 | 0.5
COc1ccc(C(=O)N2CCN(c3cc(-c4ccccc4)nc4cc(-c5cccc(Cl)c5)nn34)CC2)cc1 [Compound 16] | 2.89 ± 0.55 | 2.82 ± 1.91 | 1
c1ccc(CN2CCN(c3cc(-c4ccco4)nc4cc(-c5ccccc5)nn34)CC2)cc1 [Compound 75] | 8.99 ± 3.67 | 3.07 ± 1.88 | 2.9
O=C(c1ccoc1)N1CCCN(c2cc(-c3ccco3)nc3cc(-c4ccccc4)nn23)C1 [Compound 85] | 19.1 ± 9.52 | 2.25 ± 1.9 | 8.5
CN(CCCN(C)c1cc(-c2ccco2)nc2cc(-c3ccccc3)nn12)C(=O)c1ccoc1 [Compound 81] | 13.1 ± 6.27 | 5.43 ± 4.11 | 2.4
C#Cc1cc(N2CCN(C(=O)c3ccoc3)CC2)n2nc(-c3cccc(Cl)c3)cc2n1 [Compound 32] | 10.2 ± 3.99 | 2.36 ± 0.53 | 4.3
COc1cccc(-c2cc3nc(-c4ccccc4)cc(N4CCN(C(=O)c5ccco5)CC4)n3n2)c1 [Compound 38] | 4.77 ± 0.63 | 1.4 ± 0.32 | 3.4
CN(CCN(C)c1cc(-c2ccco2)nc2cc(-c3ccccc3)nn12)C(=O)c1ccoc1 [Compound 80] | 17.5 ± 5.88 | 13 ± 7.88 | 1.3
O=C(c1ccoc1)N1CCN(c2cc(-c3ccccc3)nc3cc(-c4ccc(Br)cc4)nn23)CC1 [Compound 33] | 1.31 ± 0.35 | 0.76 ± 0.43 | 1.7
O=C(c1ccsc1)N1CCN(c2cc(-c3ccccc3)nc3cc(-c4cccc(Cl)c4)nn23)CC1 [Compound 12] | 3.97 ± 0.8 | 1.4 ± 0.32 | 2.8
O=C(c1ccccc1)N1CCN(c2cc(-c3ccccc3)nc3cc(-c4cccc(F)c4)nn23)CC1 [Compound 42] | 4.34 ± 2.09 | 2.27 ± 0.06 | 1.9
COc1ccccc1C(=O)N1CCN(c2cc(-c3ccccc3)nc3cc(-c4cccc(Cl)c4)nn23)CC1 [Compound 14] | 4.73 ± 1.78 | 4.92 ± 4.28 | 1
COc1ccc(-c2cc(N3CCN(C(=O)c4ccoc4)CC3)n3nc(-c4ccccc4)cc3n2)cc1 [Compound 45] | 4.55 | 2.37 ± 1.8 | 1.9

SMILES | IC50 [1] [µM] | IC50 [2] [µM] | selectivity ratio at 30 min [3]
O=C(c1ccoc1)N1CCN(c2cc(-c3ccccc3)nc3cc(-c4ccccc4)nn23)CC1 [Compound 62] | 4.79 ± 4.23 | 1.58 ± 0.63 | 3
CC1CN(C(=O)c2ccoc2)CCN1c1cc(-c2ccco2)nc2cc(-c3ccccc3)nn12 (stereo not drawn) [Compound 86] | 3.27 ± 1.43 | 4.65 ± 3.96 | 0.7
O=C(c1ccccc1)N1CCN(c2cc(-c3ccco3)nc3cc(-c4ccccc4)nn23)CC1 [Compound 69] | 5.56 ± 1.25 | 1.62 ± 1.27 | 3.4
CC(=O)N1CCN(c2cc(-c3ccccc3)nc3cc(-c4cccc(Cl)c4)nn23)CC1 [Compound 23] | 5.67 ± 2.21 | 6.07 ± 0.73 | 0.9
COc1ccccc1-c1cc2nc(-c3ccco3)cc(N3CCN(C(=O)c4ccoc4)CC3)n2n1 [Compound 55] | 5.57 | 2.76 ± 2.14 | 2
O=C(c1ccoc1)N1CCN(c2cc(-c3ccco3)nc3cc(-c4ccc(Cl)cc4)nn23)CC1 [Compound 54] | 41.5 | 1.89 ± 1.18 | 22
CC(C)(C)c1cc(N2CCN(C(=O)c3ccoc3)CC2)n2nc(-c3ccccc3)cc2n1 [Compound 49] | 5.62 | 11.5 | 0.5
Cc1cccc(-c2cc3nc(-c4ccco4)cc(N4CCN(C(=O)c5ccoc5)CC4)n3n2)c1 [Compound 58] | 3.45 | 0.58 | 5.9
O=C(c1ccoc1)N1CCN(c2cc(-c3cccs3)nc3cc(-c4ccccc4)nn23)CC1 [Compound 64] | 3.46 | 1.64 ± 0.03 | 2.1
COc1ccc(-c2cc(N3CCN(C(=O)c4ccoc4)CC3)n3nc(-c4cccc(Cl)c4)cc3n2)cc1 [Compound 29] | 4.12 ± 1.05 | 1.71 ± 0.58 | 2.4
O=C(c1ccoc1)N1CCN(c2cc(-c3ccc(F)cc3)nc3cc(-c4ccccc4)nn23)CC1 [Compound 48] | 11.8 | 6.45 | 1.8
O=C(c1ccoc1)N1CCN(c2cc(-c3ccccc3F)nc3cc(-c4cccc(Cl)c4)nn23)CC1 [Compound 26] | 4.69 ± 1.5 | 1.93 ± 0.48 | 2.4
Cc1cccc(-c2cc3nc(-c4ccccc4)cc(N4CCN(C(=O)c5ccco5)CC4)n3n2)c1 [Compound 40] | 3.88 ± 1.67 | 2.46 ± 1.09 | 1.6
O=C(c1ccccc1)N1CCN(c2cc(-c3ccccc3)nc3cc(-c4cccc(Cl)c4)nn23)CC1 [Compound 13] | 3.42 ± 1.64 | 1.45 ± 0.59 | 2.4
O=C(c1ccoc1)N1CCN(c2cc(-c3ccco3)nc3cc(-c4cccs4)nn23)CC1 [Compound 51] | 8.42 | 1.56 ± 1.3 | 5.4
c1ccc(-c2cc3nc(-c4ccco4)cc(N4CCNCC4)n3n2)cc1 [Compound 77] | 23.6 ± 12.1 | 5.71 ± 1.8 | 4.1
O=C(c1ccoc1)N1CCN(c2cc(-c3cccc(F)c3)nc3cc(-c4ccccc4)nn23)CC1 [Compound 47] | 7.07 | 1.68 ± 0.61 | 4.2
